Each molecule was assayed on S. aureus DSM 20231 (assay: Bliss interaction score (quartile over a dose matrix) (fitness difference); higher = more antagonism (negative = synergy)). Conditions: not given.
Method in brief: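 OD595 was read at entry into stationary phase and expressed relative to the robust mean of the no-drug wells on the same plate, capped at 1. The resulting ratio is the fitness value. The Bliss score, observed fitness minus product-based expected fitness with single-drug fitness inferred from combinations, is summarised by quartiles over technical, biological and donor/recipient replicates.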
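Further: first quartile when negative (synergy) and third quartile when positive (antagonism).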

SMILES	Bliss interaction score
Cn1c(=O)c2c(ncn2C)n(C)c1=O [Caffeine] + CC[C@H]1OC(=O)[C@H](C)C(=O)[C@H](C)[C@@H](O[C@@H]2O[C@H](C)C[C@H](N(C)C)[C@H]2O)[C@](C)(OC)C[C@@H](C)C(=O)[C@H](C)[C@H]2N(CCCCn3cnc(-c4cccnc4)c3)C(=O)O[C@]12C [Telithromycin]	-0.372
COCCOC(=O)C1=C(C)NC(C)=C(C(=O)OC/C=C/c2ccccc2)C1c1cccc([N+](=O)[O-])c1 (configuration not stated) [Cilnidipine] + CC1(C)S[C@@H]2[C@H](NC(=O)Cc3ccccc3)C(=O)N2[C@H]1C(=O)O [PenicillinG]	-0.229
CN(C)[C@@H]1C(O)=C(C(N)=O)C(=O)[C@@]2(O)C(O)=C3C(=O)c4c(O)ccc(Cl)c4[C@@](C)(O)[C@H]3C[C@@H]12 [Clortetracycline] + OCc1cc(C(O)CNCCCCCCOCCCCc2ccccc2)ccc1O [Salmeterol]	-0.118
COCCOC(=O)C1=C(C)NC(C)=C(C(=O)OC/C=C/c2ccccc2)C1c1cccc([N+](=O)[O-])c1 (configuration not stated) [Cilnidipine] + COc1cc(Cc2cnc(N)nc2N)cc(OC)c1OC [Trimethoprim]	-0.299
CC(=O)Oc1cccc2c1C(=O)c1c(OC(C)=O)cc(C(=O)O)cc1C2=O [Diacerein] + CN(C)C(=O)C(CCN1CCC(O)(c2ccc(Cl)cc2)CC1)(c1ccccc1)c1ccccc1 [Loperamide]	-0.474
CC(C)c1c(C(=O)Nc2ccccc2)c(-c2ccccc2)c(-c2ccc(F)cc2)n1CC[C@@H](O)C[C@@H](O)CC(=O)O [Atorvastatin] + CC1(C)S[C@@H]2[C@H](NC(=O)Cc3ccccc3)C(=O)N2[C@H]1C(=O)O [PenicillinG]	0.402
C[C@H]1c2cccc(O)c2C(=O)C2=C(O)[C@]3(O)C(=O)C(C(N)=O)=C(O)[C@@H](N(C)C)[C@@H]3[C@@H](O)[C@@H]21 [Doxycycline] + CCCSc1nc(N[C@@H]2C[C@H]2c2ccc(F)c(F)c2)c2nnn([C@@H]3C[C@H](OCCO)[C@@H](O)[C@H]3O)c2n1 [Ticagrelor]	-0.272
COCCOC(=O)C1=C(C)NC(C)=C(C(=O)OC/C=C/c2ccccc2)C1c1cccc([N+](=O)[O-])c1 (configuration not stated) [Cilnidipine] + Cn1nnc(-c2ccc(-c3ccc(N4C[C@H](CO)OC4=O)cc3F)cn2)n1 [Tedizolid]	-0.429
CN(C)[C@@H]1C(O)=C(C(N)=O)C(=O)[C@@]2(O)C(O)=C3C(=O)c4c(O)ccc(Cl)c4[C@@](C)(O)[C@H]3C[C@@H]12 [Clortetracycline] + CC[C@H](c1ccc(O)cc1)[C@@H](CC)c1ccc(O)cc1 [Hexestrol]	-0.204
COCCOC(=O)C1=C(C)NC(C)=C(C(=O)OC/C=C/c2ccccc2)C1c1cccc([N+](=O)[O-])c1 (configuration not stated) [Cilnidipine] + CC(=O)NC[C@H]1CN(c2ccc(N3CCOCC3)c(F)c2)C(=O)O1 [Linezolid]	-0.254
CC(=O)Oc1ccccc1C(=O)O [Acetylsalicylicacid] + C=C1/C(=C\C=C2/CCC[C@]3(C)[C@@H]([C@H](C)CCCC(C)C)CC[C@@H]23)C[C@@H](O)C[C@@H]1O [Alfacalcidol]	-0.294
CC(=O)Oc1cccc2c1C(=O)c1c(OC(C)=O)cc(C(=O)O)cc1C2=O [Diacerein] + CC(=O)NC[C@H]1CN(c2ccc(N3CCOCC3)c(F)c2)C(=O)O1 [Linezolid]	-0.29
CC(=O)Oc1ccccc1C(=O)O [Acetylsalicylicacid] + C[C@]12CC[C@@H]3c4ccc(O)cc4CC[C@H]3[C@@H]1CC[C@@H]2O [Estradiol]	0.162
CC(C)c1c(C(=O)Nc2ccccc2)c(-c2ccccc2)c(-c2ccc(F)cc2)n1CC[C@@H](O)C[C@@H](O)CC(=O)O [Atorvastatin] + O=C(O[C@@H]1Cc2c(O)cc(O)cc2O[C@@H]1c1cc(O)c(O)c(O)c1)c1cc(O)c(O)c(O)c1 [EGCG]	-0.118
CC(=O)Oc1cccc2c1C(=O)c1c(OC(C)=O)cc(C(=O)O)cc1C2=O [Diacerein] + COc1cc(Cc2cnc(N)nc2N)cc(OC)c1OC [Trimethoprim]	-0.243
COCCOC(=O)C1=C(C)NC(C)=C(C(=O)OC/C=C/c2ccccc2)C1c1cccc([N+](=O)[O-])c1 (configuration not stated) [Cilnidipine] + CCC[C@@H]1C[C@@H](C(=O)N[C@@H]([C@H]2O[C@H](SC)[C@H](O)[C@@H](O)[C@H]2O)[C@H](C)Cl)N(C)C1 [Clindamycin]	-0.221
COCCOC(=O)C1=C(C)NC(C)=C(C(=O)OC/C=C/c2ccccc2)C1c1cccc([N+](=O)[O-])c1 (configuration not stated) [Cilnidipine] + CN(C)C(=O)C(CCN1CCC(O)(c2ccc(Cl)cc2)CC1)(c1ccccc1)c1ccccc1 [Loperamide]	-0.32
CN(C)[C@@H]1C(O)=C(C(N)=O)C(=O)[C@@]2(O)C(O)=C3C(=O)c4c(O)ccc(Cl)c4[C@@](C)(O)[C@H]3C[C@@H]12 [Clortetracycline] + O=C(O)c1cc(-c2ccc(F)cc2F)ccc1O [Diflunisal]	0.232

SMILES	Bliss interaction score
Cn1c(=O)c2c(ncn2C)n(C)c1=O [Caffeine] + CCC[C@@H]1C[C@@H](C(=O)N[C@@H]([C@H]2O[C@H](SC)[C@H](O)[C@@H](O)[C@H]2O)[C@H](C)Cl)N(C)C1 [Clindamycin]	-0.251
CC(=O)Oc1ccccc1C(=O)O [Acetylsalicylicacid] + CC(C)c1c(C(=O)Nc2ccccc2)c(-c2ccccc2)c(-c2ccc(F)cc2)n1CC[C@@H](O)C[C@@H](O)CC(=O)O [Atorvastatin]	0.213
CN(C)[C@@H]1C(O)=C(C(N)=O)C(=O)[C@@]2(O)C(O)=C3C(=O)c4c(O)ccc(Cl)c4[C@@](C)(O)[C@H]3C[C@@H]12 [Clortetracycline] + CC(=O)Oc1cccc2c1C(=O)c1c(OC(C)=O)cc(C(=O)O)cc1C2=O [Diacerein]	-0.344
COCCOC(=O)C1=C(C)NC(C)=C(C(=O)OC/C=C/c2ccccc2)C1c1cccc([N+](=O)[O-])c1 (configuration not stated) [Cilnidipine] + C[C@H]1c2cccc(O)c2C(=O)C2=C(O)[C@]3(O)C(=O)C(C(N)=O)=C(O)[C@@H](N(C)C)[C@@H]3[C@@H](O)[C@@H]21 [Doxycycline]	-0.272
CC(=O)Oc1ccccc1C(=O)O [Acetylsalicylicacid] + CCN(CC)C(=O)/C(C#N)=C/c1cc(O)c(O)c([N+](=O)[O-])c1 [Entacapone]	0.143
C[C@H]1c2cccc(O)c2C(=O)C2=C(O)[C@]3(O)C(=O)C(C(N)=O)=C(O)[C@@H](N(C)C)[C@@H]3[C@@H](O)[C@@H]21 [Doxycycline] + CC(=O)S[C@@H]1CC2=CC(=O)CC[C@]2(C)[C@H]2CC[C@@]3(C)[C@@H](CC[C@@]34CCC(=O)O4)[C@H]12 [Spironolactone]	0.239
CO/N=C(\C(=O)N[C@@H]1C(=O)N2C(C(=O)O)=C(COC(C)=O)CS[C@H]12)c1csc(N)n1 [Cefotaxime] + Nc1ccc(O)c(C(=O)O)c1 [Mesalamine]	0.16
CO/N=C(\C(=O)N[C@@H]1C(=O)N2C(C(=O)O)=C(COC(N)=O)CS[C@H]12)c1ccco1 [Cefuroxime] + CCCSc1nc(N[C@@H]2C[C@H]2c2ccc(F)c(F)c2)c2nnn([C@@H]3C[C@H](OCCO)[C@@H](O)[C@H]3O)c2n1 [Ticagrelor]	0.137
CC(=O)Oc1ccccc1C(=O)O [Acetylsalicylicacid] + CN(Cc1cnc2nc(N)nc(N)c2n1)c1ccc(C(=O)N[C@@H](CCC(=O)O)C(=O)O)cc1 [Methotrexate]	-0.416
COCCOC(=O)C1=C(C)NC(C)=C(C(=O)OC/C=C/c2ccccc2)C1c1cccc([N+](=O)[O-])c1 (configuration not stated) [Cilnidipine] + CO[C@@]12[C@H](COC(N)=O)C3=C(C(=O)C(C)=C(N)C3=O)N1C[C@@H]1N[C@@H]12 [MitomycinC]	-0.236
CC(C)c1c(C(=O)Nc2ccccc2)c(-c2ccccc2)c(-c2ccc(F)cc2)n1CC[C@@H](O)C[C@@H](O)CC(=O)O [Atorvastatin] + CO/N=C(\C(=O)N[C@@H]1C(=O)N2C(C(=O)O)=C(COC(C)=O)CS[C@H]12)c1csc(N)n1 [Cefotaxime]	-0.17
CN(C)[C@@H]1C(O)=C(C(N)=O)C(=O)[C@@]2(O)C(O)=C3C(=O)c4c(O)ccc(Cl)c4[C@@](C)(O)[C@H]3C[C@@H]12 [Clortetracycline] + C[C@]12CC[C@@H]3c4ccc(O)cc4CC[C@H]3[C@@H]1CC[C@@H]2O [Estradiol]	0.237
Cc1cc(C(C)(C)C)c(O)c(C)c1CC1=NCCN1 [Oxymetazoline] + COc1cc(Cc2cnc(N)nc2N)cc(OC)c1OC [Trimethoprim]	0.209
CC(=O)Oc1ccccc1C(=O)O [Acetylsalicylicacid] + CC(C)Cc1ccc(C(C)C(=O)O)cc1 [Ibuprofen]	-0.275
COc1cccc2c1C(=O)c1c(O)c3c(c(O)c1C2=O)C[C@@](O)(C(=O)CO)C[C@@H]3O[C@H]1C[C@H](N)[C@H](O)[C@H](C)O1 [Doxorubicin] + CCCSc1nc(N[C@@H]2C[C@H]2c2ccc(F)c(F)c2)c2nnn([C@@H]3C[C@H](OCCO)[C@@H](O)[C@H]3O)c2n1 [Ticagrelor]	-0.298
Cn1c(=O)c2c(ncn2C)n(C)c1=O [Caffeine] + CC[C@H]1OC(=O)[C@H](C)[C@@H](O[C@H]2C[C@@](C)(OC)[C@@H](O)[C@H](C)O2)[C@H](C)[C@@H](O[C@@H]2O[C@H](C)C[C@H](N(C)C)[C@H]2O)[C@](C)(OC)C[C@@H](C)C(=O)[C@H](C)[C@@H](O)[C@]1(C)O [Clarithromycin]	-0.357
CC(C)c1c(C(=O)Nc2ccccc2)c(-c2ccccc2)c(-c2ccc(F)cc2)n1CC[C@@H](O)C[C@@H](O)CC(=O)O [Atorvastatin] + CO[C@@]12[C@H](COC(N)=O)C3=C(C(=O)C(C)=C(N)C3=O)N1C[C@@H]1N[C@@H]12 [MitomycinC]	0.187
CO/N=C(\C(=O)N[C@@H]1C(=O)N2C(C(=O)O)=C(COC(C)=O)CS[C@H]12)c1csc(N)n1 [Cefotaxime] + O=c1[nH]cc(F)c(=O)[nH]1 [Fluorouracil]	-0.114

Same assay, conditions: main component drawn

SMILES	Bliss interaction score
COCCOC(=O)C1=C(C)NC(C)=C(C(=O)OC/C=C/c2ccccc2)C1c1cccc([N+](=O)[O-])c1 (configuration not stated) [Cilnidipine] + CCC(C)C1C(=O)NC(=C)C(=O)NC(C(=O)NC(CSCC(C(=O)N1)NC(=O)/C(=C/C)/NC(=O)C(C(C)CC)N)C(=O)NC2C(SCC(NC(=O)CNC(=O)C3CCCN3C2=O)C(=O)NC(CCCCN)C(=O)NC4C(SCC(NC(=O)CNC(=O)C(NC(=O)C(NC(=O)C(NC(=O)CNC4=O)C)CC(C)C)CCSC)C(=O)NC(CC(=O)N)C(=O)NC(CCSC)C(=O)NC(CCCCN)C(=O)NC5C(SCC6C(=O)NC(C(=O)NC(CSC(C(C(=O)N6)NC(=O)C(NC5=O)C)C)C(=O)NC(CO)C(=O)NC(C(C)CC)C(=O)NC(CC7=CN=CN7)C(=O)NC(C(C)C)C(=O)NC(=C)C(=O)NC(CCCCN)C(=O)O)CC8=CN=CN8)C)C)C)CC(C)C [Nisin]	0.156
